Key:
[1] = biological target: Methionyl-tRNA synthetase (Enterococcus faecalis); experiment: Inhibitory activity against Enterococci faecalis methionyl-tRNA synthetase (EfMetRS)
[2] = biological target: Methionyl-tRNA synthetase (Staphylococcus aureus); experiment: Inhibitory activity against Staphylococcus aureus methionyl-tRNA synthetase (SaMetRS)
[3] = biological target: Methionyl-tRNA synthetase (Staphylococcus aureus); experiment: as above; remark: listed apart in the source
[4] = biological target: Methionyl-tRNA synthetase (Staphylococcus aureus); experiment: as above; remark: listed apart in the source

| Structure (SMILES) | IC50 [1] [µM] | IC50 [3] [µM] | further results |
| --- | --- | --- | --- |
| O=C(O)c1cc(-c2ccc(-c3ccc(Cl)cc3Cl)cc2)n(Cc2ccccc2)n1 [1-Benzyl-5-(2',4'-dichloro-biphenyl-4-yl)-1H-pyrazole-3-carboxylic acid] | 29.9 |  | IC50 [2]: 3.94 µM |
| O=C(O)Cn1nc(C(=O)O)cc1-c1ccc(-c2ccc(Cl)cc2Cl)cc1 [1-Carboxymethyl-5-(2',4'-dichloro-biphenyl-4-yl)-1H-pyrazole-3-carboxylic acid] |  |  | IC50 [2]: 3.42 µM |
| O=C(O)c1cc(-c2ccc(-c3ccc(Cl)cc3Cl)cc2)n(-c2ccc(Cl)cc2Cl)n1 [5-(2',4'-Dichloro-biphenyl-4-yl)-1-(2,4-dichloro-phenyl)-1H-pyrazole-3-carboxylic acid] | 8.99 | 4.88 |  |
| O=C(O)c1cc(-c2ccc(-c3ccc(Cl)cc3Cl)cc2)n(CCO)n1 [5-(2',4'-Dichloro-biphenyl-4-yl)-1-(2-hydroxy-ethyl)-1H-pyrazole-3-carboxylic acid] | 11.4 |  | IC50 [4]: 4.46 µM |
| COc1ccccc1-n1nc(C(=O)O)cc1-c1ccc(-c2ccc(Cl)cc2Cl)cc1 [5-(2',4'-Dichloro-biphenyl-4-yl)-1-(2-methoxy-phenyl)-1H-pyrazole-3-carboxylic acid] | 17.8 |  | IC50 [2]: 1.51 µM |
| COc1ccc(-n2nc(C(=O)O)cc2-c2ccc(-c3ccc(Cl)cc3Cl)cc2)cc1 [5-(2',4'-Dichloro-biphenyl-4-yl)-1-(4-methoxy-phenyl)-1H-pyrazole-3-carboxylic acid] |  |  | IC50 [2]: 10.5 µM |
| CCn1nc(C(=O)O)cc1-c1ccc(-c2ccc(Cl)cc2Cl)cc1 [5-(2',4'-Dichloro-biphenyl-4-yl)-1-ethyl-1H-pyrazole-3-carboxylic acid] |  |  | IC50 [2]: 1.02 µM |
| O=C(O)c1cc(-c2ccc(-c3ccc(Cl)cc3Cl)cc2)n(-c2ccccc2)n1 [5-(2',4'-Dichloro-biphenyl-4-yl)-1-phenyl-1H-pyrazole-3-carboxylic acid] |  | 5.47 |  |
| NC(=O)c1cc(-c2ccc(-c3ccc(Cl)cc3Cl)cc2)n(-c2ccccn2)n1 [5-(2',4'-Dichloro-biphenyl-4-yl)-1-pyridin-2-yl-1H-pyrazole-3-carboxylic acid amide] |  |  | IC50 [4]: 2.95 µM |
| O=C(O)c1cc(-c2ccc(-c3ccc(Cl)cc3Cl)cc2)n(-c2ccccn2)n1 [5-(2',4'-Dichloro-biphenyl-4-yl)-1-pyridin-2-yl-1H-pyrazole-3-carboxylic acid] | 1.93 |  | IC50 [4]: 0.63 µM |
| O=C(NCc1nnn[nH]1)c1cc(-c2ccc(-c3ccc(Cl)cc3Cl)cc2)n(-c2cccnc2)n1 [5-(2',4'-Dichloro-biphenyl-4-yl)-1-pyridin-3-yl-1H-pyrazole-3-carboxylic acid (1H-tetrazol-5-ylmethyl)-amide] | 3.7 |  | IC50 [4]: 0.13 µM |
| O=C(O)c1cc(-c2ccc(-c3ccc(Cl)cc3Cl)cc2)n(-c2cccnc2)n1 [5-(2',4'-Dichloro-biphenyl-4-yl)-1-pyridin-3-yl-1H-pyrazole-3-carboxylic acid] |  |  | IC50 [4]: 0.3 µM |
| O=C(O)c1cc(-c2ccc(-c3ccc(Cl)cc3Cl)cc2)n(Cc2cccnc2)n1 [5-(2',4'-Dichloro-biphenyl-4-yl)-1-pyridin-3-ylmethyl-1H-pyrazole-3-carboxylic acid] |  | 0.66 |  |
| O=C(O)c1cc(-c2ccc(-c3ccc(Cl)cc3Cl)cc2)n(Cc2ccncc2)n1 [5-(2',4'-Dichloro-biphenyl-4-yl)-1-pyridin-4-ylmethyl-1H-pyrazole-3-carboxylic acid] |  | 0.5 |  |
| O=C(O)c1cc(-c2ccc(-c3ccc(Cl)cc3Cl)cc2)nn1Cc1ccccn1 [5-(2',4'-Dichloro-biphenyl-4-yl)-2-pyridin-2-ylmethyl-2H-pyrazole-3-carboxylic acid] |  | 2.68 |  |
| O=C(O)c1cc(-c2ccc(-c3ccc(F)c(Cl)c3)cc2)n(-c2ccc(Cl)cc2Cl)n1 [5-(3'-Chloro-4'-fluoro-biphenyl-4-yl)-1-(2,4-dichloro-phenyl)-1H-pyrazole-3-carboxylic acid] |  | 17.2 |  |
| O=C(O)c1cc(-c2ccc(-c3ccccc3)cc2)n(-c2ccc(Cl)cc2Cl)n1 [5-Biphenyl-4-yl-1-(2,4-dichloro-phenyl)-1H-pyrazole-3-carboxylic acid] |  | 40.9 |  |

— BindingDB's records for doi:10.1016/s0960-894x(03)00298-1 (Cubist Pharmaceutical, 2003)
